Source: patent US7407767B2, “Method of screening remedy for heart disease and medicinal composition for treating heart disease” (Ono Pharmaceutical Co., Ltd., priority 2003, dated 2008)

System: PD-1-deficient mouse serum
Experiment: Competition with recombinant cardiac troponin I in western blotting of normal mouse heart extract
Assay type: binding
Details: recombinant cardiac troponin I added at 1, 10 and 100 μg/ml
Experimental: PD-1-deficient mouse serum (mouse #101, #104 and #117) was used for western blotting of normal mouse heart extract. For the competition assay, recombinant cardiac troponin I was added to immune blot solution at 1, 10, and 100 μg/ml. The 30-kDa antigen recognized by PD-1-deficient mouse serum was depleted by immunoprecipitation with antibodies to anti-myocardial troponin I and was recoverable from the pellet fraction (FIG. 2 (b)).
Thus, the band was confirmed to consist solely of cardiac troponin I.

recombinant cardiac troponin I: mouse cardiac troponin I protein obtained by PreScission protease cleavage of a GST-fusion recombinant protein
intensity of the 30-kDa band recognized by PD-1-deficient mouse serum: weakened in a dose-dependent manner
